Results reported in ChEMBL document CHEMBL1671711, “Serum and cerebrospinal fluid levels of colistin in pediatric patients” (Antimicrob Agents Chemother, 2010).

Key:
[1] = tested on: Acinetobacter baumannii; assay: Antimicrobial activity against Acinetobacter baumannii; format: functional
[2] = tested on: Klebsiella pneumoniae; assay: Antimicrobial activity against Klebsiella pneumoniae; format: functional, organism-based
[3] = tested on: Stenotrophomonas maltophilia; assay: Antimicrobial activity against Stenotrophomonas maltophilia; format: functional, organism-based

Measured: MIC

COLISTIN
< 0.5 µg/mL: all assays above
